Test results reported in patent EP0460690A2, “Use of phenolsulfophthaline derivatives for the treatment of osteoporosis” (THE GREEN CROSS CORPORATION, priority 1990, dated 1991).

What was measured:
[1] = system: Wister female rats; assay: Acute toxicity, oral administration; format: in vivo; conditions: dispersed in 5 % Tween 20, eight rats, dose of 1 g/kg body weight
Text: Compound 1 dispersed in 5 % Tween 20 was orally administered to eight Wister female rats aged 7 to 8 months.

[2] = system: rats suffering from osteoporosis; assay: Bone mass increase in osteoporosis rats (ovariectomy and sciatic nerve excision); format: in vivo, Wister female rats; conditions: thigh bone, oral 100 µg/kg body weight everyday in 5 % Tween 20, after 12 weeks; for Bone Mass Ash wt./unit vol.: carrier 370 ± 19, normal rats 387 ± 16; for Bone Mass Dry wt./unit vol.: carrier 821 ± 15, normal rats 976 ± 11
Text: The effects of the phenolsulfophthalein compounds of the present invention of increasing bone mass were examined by using rats suffering from osteoporosis.
Wister female rats aged 7 to 8 months (8 rats per group) were subjected to ovariectomy and sciatic nerve excision to thereby cause osteoporosis. Starting from the next day after the operation, compound 1, as described above, and compound 2 (represented by formula (I), wherein R¹ and R² are both acetyl groups) each dispersed in 5 % Tween 20 were orally administered in a dose of 100 µg/kg body weight everyday. After 12 weeks, the thigh bones of the animals were collected and the volume, dry weight and ash weight were measured. Thus the dry weight and ash weight per unit volume were determined.

[3] = biological target: T1, estrogen receptor in mastocarcinoma (Homo sapiens, UniProt P03372); conditions: literature report; cited from earlier work
T1 construct: host or cells: mastocarcinoma
T1 sequence (P03372 1-595): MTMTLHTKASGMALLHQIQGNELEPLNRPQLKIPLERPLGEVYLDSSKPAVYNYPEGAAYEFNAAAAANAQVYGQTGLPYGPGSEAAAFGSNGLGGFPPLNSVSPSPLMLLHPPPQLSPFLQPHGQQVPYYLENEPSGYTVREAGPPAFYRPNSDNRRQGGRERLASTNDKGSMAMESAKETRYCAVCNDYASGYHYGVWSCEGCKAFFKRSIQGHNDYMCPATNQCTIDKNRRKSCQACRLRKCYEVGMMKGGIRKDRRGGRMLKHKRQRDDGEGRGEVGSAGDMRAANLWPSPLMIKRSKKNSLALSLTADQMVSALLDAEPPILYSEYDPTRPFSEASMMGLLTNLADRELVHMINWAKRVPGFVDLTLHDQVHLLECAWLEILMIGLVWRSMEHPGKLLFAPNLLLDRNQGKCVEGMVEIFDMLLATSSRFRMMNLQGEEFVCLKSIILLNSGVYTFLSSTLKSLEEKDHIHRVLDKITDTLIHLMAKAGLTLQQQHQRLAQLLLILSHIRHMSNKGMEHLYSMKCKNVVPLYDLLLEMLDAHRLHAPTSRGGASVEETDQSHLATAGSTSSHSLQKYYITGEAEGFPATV

O=S(=O)(Oc1ccccc1)c1ccccc1C(c1ccc(O)cc1)c1ccc(O)cc1 [compound 1]
mortality (acute toxicity) [1]: no animal died | Bone Mass Ash wt./unit vol. [2]: 385 ± 12 mg/mL | Bone Mass Dry wt./unit vol. [2]: 861 ± 12 mg/mL

CC(=O)Oc1ccc(C(c2ccc(OC(C)=O)cc2)c2ccccc2S(=O)(=O)Oc2ccccc2)cc1 [compound 2]
Bone Mass Ash wt./unit vol. [2]: 383 ± 14 mg/mL | Bone Mass Dry wt./unit vol. [2]: 856 ± 15 mg/mL

O=S(=O)(Oc1ccccc1)c1ccccc1C(c1ccc(O)cc1)c1ccc(O)cc1 [drawing 1]
binding to estrogen receptor [3]: binding to an estrogen receptor
